Results reported in patent US10105357B2, “Indication of antibiotic drugs for preparation of cancer inhibition pharmaceutical composition” (LAUNX BIOMEDICAL CO., LTD., priority 2014, dated 2018).
Like-named read-outs stand apart in the source and are kept apart here.

What was measured:
Assay type in all cases: cell-based, human
cancer cell lines = experiment: Cell viability analysis (WST-1) on cancer cell lines; conditions: drug 10 μM, 72 hours, WST-1; Table 3
[1] = tested on: HI650 (Lung Adenocarcinoma); experiment: Cell viability analysis, lung cancer HI650; conditions: Homo sapiens
[2] = tested on: A549 (Lung Adenocarcinoma); experiment: Cell viability analysis, lung cancer A549; conditions: Homo sapiens
[3] = tested on: AGS (Gastric Adenocarcinoma); experiment: Cell viability analysis, gastric cancer AGS; conditions: Homo sapiens
[4] = tested on: MKN-45 (Gastric Adenocarcinoma); experiment: Cell viability analysis, gastric cancer MKN-45; conditions: Homo sapiens
[5] = tested on: HepG2 (Hepatocellular Carcinoma); experiment: Cell viability analysis, hepatic cancer HepG2; conditions: Homo sapiens
[6] = tested on: LoVo (Colorectal Adenocarcinoma); experiment: Cell viability analysis, colon cancer LoVo; conditions: Homo sapiens, LoVo
[7] = tested on: A375 (Amelanotic Melanoma); experiment: Cell viability analysis, skin cancer A375; conditions: Homo sapiens
[8] = tested on: HeLa (Cervix Adenocarcinoma); experiment: Cell viability analysis, cervical cancer HeLa; conditions: Homo sapiens, HeLa
[9] = tested on: PC3 (p53−) (Prostate Adenocarcinoma); experiment: Cell viability analysis, prostate cancer PC3; conditions: Homo sapiens
[10] = tested on: TSGH-8301 (Urinary Bladder Carcinoma); experiment: Cell viability analysis, bladder cancer TSGH-8301; conditions: Homo sapiens
[11] = tested on: MCF7 (Mammary Gland, Adenocarcinoma); experiment: Cell viability analysis, breast cancer MCF7; conditions: Homo sapiens
[12] = tested on: HL-60 (Acute Promyelocytic Leukemia); experiment: Cell viability analysis, leukemia HL-60; conditions: Homo sapiens
[13] = NCI-H1650, 72 h, drug 10 μM, 72 hours, WST-1, OD450 nm, read-out: cell viability (survival rate), H1650
[14] = A549, 72 h, drug 10 μM, 72 hours, WST-1, OD450 nm, read-out: cell viability (survival rate), A549
[15] = 72 h, drug 10 μM, 72 hours, WST-1, OD450 nm, read-out: cell viability (survival rate), AGS
[16] = MKN-45, 72 h, drug 10 μM, 72 hours, WST-1, OD450 nm, read-out: cell viability (survival rate), MKN-45
[17] = HepG2, 72 h, drug 10 μM, 72 hours, WST-1, OD450 nm, read-out: cell viability (survival rate), HepG2
[18] = 72 h, read-out: cell viability (survival rate), LoVo, drug 10 μM, 72 hours, WST-1, OD450 nm
[19] = A-375, 72 h, drug 10 μM, 72 hours, WST-1, OD450 nm, read-out: cell viability (survival rate), A375
[20] = 72 h, drug 10 μM, 72 hours, WST-1, OD450 nm, read-out: cell viability (survival rate), HeLa
[21] = 72 h, drug 10 μM, 72 hours, WST-1, OD450 nm, read-out: cell viability (survival rate), PC3
[22] = 72 h, drug 10 μM, 72 hours, WST-1, OD450 nm, read-out: cell viability (survival rate), TSGH
[23] = MCF7, 72 h, drug 10 μM, 72 hours, WST-1, OD450 nm, read-out: cell viability (survival rate), MCF7
[24] = HL-60, 72 h, drug 10 μM, 72 hours, WST-1, OD450 nm, read-out: cell viability (survival rate), HL-60
[25] = NCI-H1650, 72 h, read-out: cell viability (survival rate), H1650, drug 10 μM, 72 hours, WST-1, OD450 nm
[26] = A549, 72 h, read-out: cell viability (survival rate), A549, drug 10 μM, 72 hours, WST-1, OD450 nm
[27] = 72 h, read-out: cell viability (survival rate), AGS, drug 10 μM, 72 hours, WST-1, OD450 nm
[28] = MKN-45, 72 h, read-out: cell viability (survival rate), MKN-45, drug 10 μM, 72 hours, WST-1, OD450 nm
[29] = HepG2, 72 h, read-out: cell viability (survival rate), HepG2, drug 10 μM, 72 hours, WST-1, OD450 nm
[30] = A-375, 72 h, read-out: cell viability (survival rate), A375, drug 10 μM, 72 hours, WST-1, OD450 nm
[31] = 72 h, read-out: cell viability (survival rate), HeLa, drug 10 μM, 72 hours, WST-1, OD450 nm
[32] = 72 h, read-out: cell viability (survival rate), PC3, drug 10 μM, 72 hours, WST-1, OD450 nm
[33] = 72 h, read-out: cell viability (survival rate), TSGH, drug 10 μM, 72 hours, WST-1, OD450 nm
[34] = MCF7, 72 h, read-out: cell viability (survival rate), MCF7, drug 10 μM, 72 hours, WST-1, OD450 nm
[35] = HL-60, 72 h, read-out: cell viability (survival rate), HL-60, drug 10 μM, 72 hours, WST-1, OD450 nm

SMILES | inhibition effect on different cancer cell lines (cancer cell lines) | viability at 10 µM [1, 13] [%] | viability at 10 µM [2, 14] [%] | viability at 10 µM [3, 15] [%] | viability at 10 µM [4, 16] [%] | viability at 10 µM [5, 17] [%] | viability at 10 µM [6, 18] [%] | viability at 10 µM [7, 19] [%] | viability at 10 µM [8, 20] [%] | viability at 10 µM [9, 21] [%] | viability at 10 µM [10, 22] [%] | viability at 10 µM [11, 23] [%] | viability at 10 µM [12, 24] [%] | viability at 10 µM [1, 25] [%] | viability at 10 µM [2, 26] [%] | viability at 10 µM [3, 27] [%] | viability at 10 µM [4, 28] [%] | viability at 10 µM [5, 29] [%] | viability at 10 µM [7, 30] [%] | viability at 10 µM [8, 31] [%] | also measured
Cc1cc(=O)n(-c2ccccc2)n1C [Antipyrine] | significant inhibition effect |  |  |  |  |  |  |  |  |  |  |  |  |  |  |  |  |  |  |  | viability at 10 µM ([1]; NCI-H1650, drug 10 μM, 72 hours, WST-1, OD450 nm, read-out: cell viability (survival rate), H1650): 57.3%; viability at 10 µM ([2]; A549, drug 10 μM, 72 hours, WST-1, OD450 nm, read-out: cell viability (survival rate), A549): 76.4%; viability at 10 µM ([3]; drug 10 μM, 72 hours, WST-1, OD450 nm, read-out: cell viability (survival rate), AGS): 109%; viability at 10 µM ([4]; MKN-45, drug 10 μM, 72 hours, WST-1, OD450 nm, read-out: cell viability (survival rate), MKN-45): 109%; viability at 10 µM ([5]; HepG2, drug 10 μM, 72 hours, WST-1, OD450 nm, read-out: cell viability (survival rate), HepG2): 105%; viability at 10 µM ([6]; drug 10 μM, 72 hours, WST-1, OD450 nm, read-out: cell viability (survival rate), LoVo): 97.1%; viability at 10 µM ([7]; A-375, drug 10 μM, 72 hours, WST-1, OD450 nm, read-out: cell viability (survival rate), A375): 77.9%; viability at 10 µM ([8]; drug 10 μM, 72 hours, WST-1, OD450 nm, read-out: cell viability (survival rate), HeLa): 76.8%; viability at 10 µM ([9]; drug 10 μM, 72 hours, WST-1, OD450 nm, read-out: cell viability (survival rate), PC3): 76.8%; viability at 10 µM ([10]; drug 10 μM, 72 hours, WST-1, OD450 nm, read-out: cell viability (survival rate), TSGH): 90.1%; viability at 10 µM ([11]; MCF7, drug 10 μM, 72 hours, WST-1, OD450 nm, read-out: cell viability (survival rate), MCF7): 61.3%; viability at 10 µM ([12]; HL-60, drug 10 μM, 72 hours, WST-1, OD450 nm, read-out: cell viability (survival rate), HL-60): 102%
C[C@@H](O)[C@H]1C(=O)N2C(C(=O)O)=C(S[C@@H]3CN[C@H](C(=O)N(C)C)C3)[C@H](C)[C@H]12 [Meropenem] | significant inhibition effect | 55.4 | 46 | 68.3 | 84.9 | 99.3 | 87.3 | 65.1 | 111 | 70.7 | 132 | 68.1 | 102 |  |  |  |  |  |  |  | 
N[C@@H](C(=O)N[C@@H]1C(=O)N2C(C(=O)O)=C(Cl)CS[C@H]12)c1ccccc1 [Cefaclor (Ceclor), Cefaclor] | significant inhibition effect | 62.3 | 61 | 41.9 | 97 | 108 | 88.2 | 67.5 | 86.7 | 70.1 | 81.6 | 90.6 | 112 |  |  |  |  |  |  |  | 
CN1CCN(c2c(F)cc3c(=O)c(C(=O)O)cn4c3c2OCN4C)CC1 [Marbofloxacin] | significant inhibition effect |  |  |  |  |  | 108 |  |  |  |  |  |  | 80.3 | 83.8 | 81.2 | 112 | 95.6 | 86.8 | 88.2 | viability at 10 µM [9, 32]: 78.4%; viability at 10 µM [10, 33]: 91.6%; viability at 10 µM [11, 34]: 92.3%; viability at 10 µM [12, 35]: 105%
CCN1CCN(c2cc3c(cc2F)c(=O)c(C(=O)O)cn3C2CC2)CC1 [Enrofloxacin] | significant inhibition effect |  |  |  |  |  | 84.8 |  |  |  |  |  |  | 44.5 | 67.5 | 94.5 | 37.4 | 77.2 | 65.2 | 67 | viability at 10 µM [9, 32]: 48.6%; viability at 10 µM [10, 33]: 77.9%; viability at 10 µM [11, 34]: 66.6%; viability at 10 µM [12, 35]: 86.6%
